Here are results for two substances from US7824687B2, “Clustered multi-antigenic carbohydrate constructs, methods for their preparation, and uses thereof” (Sloan-Kettering Institute For Cancer Research, priority 1999, dated 2010).

Test [1] relates to GD3-KLH and MUC1-KLH conjugates. The conditions noted are these: mouse; cited from earlier work.
The subject of test [2] is monoclonal antibody F12. Put plainly: Binding to monoclonal antibody F12 (ELISA, immune thin layer chromatography, inhibition). From the text: In yet another example, a fucosyl GM1-KLH glycoconjugate is generated according to the method of the present invention, as discussed in Example 1. […] Clearly, the synthetic fucosyl GM1 pentenyl glycoside provides the antigenic epitope with which F12 reacts on SCLC cells.
In general terms: An ELISA detects its analyte on a solid surface through an enzyme-linked reagent.

In the case of QS-21, the “augmentation of antibody responses compared to the conjugates alone” value in test [1] is recorded as 1000-100,000 fold.

As for “fucosyl GM1 pentenyl glycoside [n-pentenyl fucosyl GM1]”, the “binding to monoclonal antibody F12” value in test [2] (ELISA and immune thin layer chromatography assays, prior to conjugation) was “shown to bind”. The “inhibition of reactivity of natural fucosyl GM1 with F12” value in test [2] (preincubation of F12) is recorded as “completely inhibits”.
